Measurements from patent US20260226006A1, “INDOLE COMPOUND, PREPARATION METHOD THEREFOR AND USE THEREOF” (SUZHOU MERNA THERAPEUTICS CO. LTD, priority 2023, published 2026).

How the values were obtained:
HaCat cells = test: m6A methylation level of human HaCat keratinocytes, EpiQuik m6A RNA methylation quantification kit (Example 20); type: cell-based; conditions: HaCat cells, 24 hours
Method: HaCat cells were cultured in a DMEM culture medium containing 10% fetal bovine serum, 100 U/mL penicillin, and 100 μg/mL streptomycin. Culture dishes were placed in an incubator containing 5% CO2 for culture at 37° C. for 24 hours. An equal volume of DMSO was added in control group 1, 50 nM sorafenib, capecitabine, docetaxel, and osimertinib were respectively added in control groups A, B, C, and D, and 400 nM test compounds or nicotinamide were respectively added in sample groups A1-17, B1-17, C1-17, and D1-17 after the addition of 50 nM corresponding compounds. The cells were continuously cultured for 24 hours, washed with PBS, and then collected by high-speed centrifugation. Total RNA was extracted using a Trizol reagent (Sigma Aldrich), and RNA m6A methylation of a sample was quantitatively detected using an EpiQuik m6A RNA methylation quantification kit. The concentrations of positive control samples for a standard curve were 0.01 ng/μl, 0.02 ng/μl, 0.05 ng/μl, 0.1 ng/μl, 0.2 ng/μl, and 0.5 ng/μl. The absorbance at 450 nm was read using a microplate reader (Tecan GENios). A quantitative calculation formula for m6A is as follows:
m6A (ng)=(absorbance of sample well−absorbance of background well)/slope of standard curve m6A (%)=m6A (ng)/RNA amount of sample (ng)*100%.

paw plantar skin of rats = test: Rat models with hand-foot skin reaction, topical ointment (Example 22); type: in vivo, SD rats; conditions: for Incidence rate (successful modeling rate for hand-foot skin reaction): modeling drug alone by gavage once daily, no ointment, SD rats, 30 days
Method: After adaptive feeding for one week, SD rats (with a body weight of approximately 200 g) were randomly divided into groups according to the body weight, with 12 rats in each group. Modeling drugs (including sorafenib, erlotinib, afatinib, and osimertinib) were respectively dissolved in a solution containing 5% of DMSO, 45% of PEG400, and 50% of H2O, and the modeling drugs were diluted to required concentrations and then administered once daily by gavage at doses shown in Table 3. After administration by gavage for 1 hour, 0.05 g of ointments containing different mass proportions of test compounds were evenly applied to left paws of the rats, a blank matrix ointment was applied to right paws of the rats to serve as a self-control, and no ointment was applied to the rats in a blank control group. After drug application, four limbs were continuously immobilized for 2 hours, then wiped with clean water to remove the residual drugs, removed from immobilization, and restored to free movement. The modeling drugs, the blank matrix ointment, and the ointments containing the test compounds were all administered once daily. After continuous administration for 30 days, the rats were euthanized, and paw plantar skin tissues were collected, fixed in 10% neutral formalin, […]. The ointments for the test compounds were prepared by mixing the compounds, white beeswax, white petrolatum, and light liquid paraffin in specific ratios (weight ratios of 3 ointments were respectively 1:18:58:23, 3:18:57:22, and 10:20:40:30). The blank matrix ointment was prepared by mixing white beeswax, white petrolatum, and light liquid paraffin in a specific ratio (weight ratio of 18:60:22).
Tissue staining: After dewaxing and rehydration, the paw plantar skin tissue sections of the above rats were stained in a hematoxylin solution for several minutes, cleaned, and placed in 1% acid alcohol for soaking until the sections faded to light blue-red. After cleaning with running water for 5 minutes, the sections were stained with eosin for 2-3 minutes, cleaned to remove excess dyes, dehydrated, then permeabilized by adding xylene for several minutes, and sealed and fixed with a neutral resin. The stratum corneum was observed under an optical microscope, and the thickness of the epidermal stratum corneum was measured using Dmetrix software.
Immunohistochemical staining: After dewaxing and hydration, the paw plantar skin tissue sections of the above rats were incubated with 3% H2O2 at room temperature for 30 minutes and blocked with 10% goat serum for 30 minutes after antigen retrieval. A KRT1 antibody (Abcam, ab93652) and a Loricrin antibody (Abcam, ab183646) were added dropwise, the sections were incubated overnight at 4° C., and an HRP secondary antibody (ZSGB-BIO, PV-6001) and a DAB kit (ZSG-BIO, ZLI9017) were added for color development. The sections were re-stained with hematoxylin, cleaned, and sealed and fixed with a neutral resin, and the expression amounts of KRT1 and Loricrin were observed under an optical microscope.
An incidence rate calculation method involves a proportion of animals in each group meeting the above criteria for determining successful modeling, that is, incidence rate=(number of successfully modeled rats/total number of rats in the group)*100%. […]

HaCaT keratinocytes = test: Inhibition of HBEGF-induced differentiation of HaCaT keratinocytes, marker mRNA by RT-PCR (Example 21); type: cell-based, human; conditions: 2.5 ng/mL human recombinant HBEGF protein + test compound, 24 hours
Method: Human HaCaT keratinocytes were cultured in a DMEM culture medium containing 10% fetal bovine serum, 100 U/mL penicillin, and 100 µg/mL streptomycin. The cells were seeded into a 96-well plate at a density of […] and placed in an incubator containing 5% carbon dioxide for culture at 37° C. for 24 hours. An equal volume of DMSO was added into control well 1, a 2.5 ng/mL human recombinant HBEGF protein (Abcam, ab205523) was added into control well 2, and a 2.5 ng/mL human recombinant HBEGF protein and corresponding concentrations of test compounds were added into sample wells. The cells were continuously cultured for 24 hours, washed with PBS, and then collected by high-speed centrifugation. Total RNA was extracted using a Trizol reagent (Sigma Aldrich). 1 μg of RNA was reverse-transcribed into cDNA using a cDNA reverse transcription kit (Transgene Biotech, AT311-03). 1.25 μL of a primer (with a primer sequence shown in Table 2), 10 μL of an iTag Universal SYBR Green supermix (Bio-Rad, 172-S125), and an appropriate amount of DEPC ultrapure water were added to formulate 20 μL of a reaction solution to perform an RT-PCR reaction. Upon completion of the reaction, the reaction solution was subjected to agarose gel electrophoresis to determine the mRNA expression amounts of keratinocyte differentiation markers KRT1, KRT10, Loricrin, and Involucrin.

[1] = 50 nM capecitabine + 400 nM test compound
[2] = 50 nM docetaxel + 400 nM test compound
[3] = 50 nM osimertinib + 400 nM test compound
[4] = 50 nM sorafenib + 400 nM test compound
[5] = successfully modeled rats, modeling drug

KRT1 and Loricrin in tissues (immunohistochemical staining) (paw plantar skin of rats; [5]) | KRT1 and Loricrin in tissues (immunohistochemical staining) (paw plantar skin of rats; rat, in vivo) | SMILES | m6A fold change relative to control group 1 (HaCat cells; [1]) | m6A fold change relative to control group 1 (HaCat cells; [2]) | m6A fold change relative to control group 1 (HaCat cells; [3]) | m6A fold change relative to control group 1 (HaCat cells; [4]) | Incidence rate (successful modeling rate for hand-foot skin reaction) (paw plantar skin of rats) | Incidence rate (successful modeling rate for hand-foot skin reaction) (paw plantar skin of rats; listed as afatinib) [%] | stratum corneum thickness of the paw plantar skin (paw plantar skin of rats; [5]) | mRNA expression amounts of HaCaT differentiation markers KRT1, KRT10, Loricrin, and Involucrin (HaCaT keratinocytes) | stratum corneum thickness of the paw plantar skin (paw plantar skin of rats; rat, in vivo)
– | – | NC(=O)C1CCC(F)c2c1[nH]c1ccc(Cl)cc21 (centres unmarked) [Compound 7, 6-chloro-4-fluoro-2,3,4,9-tetrahydro-1H-carbazole-1-carboxamide] | 3.9 | 3.4 | 2.9 | 3.3 | – | – | – | – | –
significantly increased | – | CN(C)C/C=C/C(=O)Nc1cc2c(Nc3ccc(F)c(Cl)c3)ncnc2cc1O[C@H]1CCOC1 [Afatinib, afatinib, reference compound] | – | – | – | – | 8/12 (66.7%) | 66.7 | significantly higher than that of normal rats | – | –
– | – | NC(=O)[C@@H]1CCCc2c1[nH]c1ccc(Cl)cc21 [Compound 2a, (R)-6-chloro-2,3,4,9-tetrahydro-1H-carbazole-1-carboxamide] | 3.5 | 5.6 | 3.2 | 3.4 | – | – | – | – | –
– | – | NC(=O)C1CCCc2c1[nH]c1cc(F)c(Cl)cc21 (centres unmarked) [Compound 3b, 6-chloro-7-fluoro-2,3,4,9-tetrahydro-1H-carbazole-1-carboxamide] | 2.9 | 3.2 | 3.1 | 3.3 | – | – | – | significantly inhibited | –
– | – | NC(=O)C1c2[nH]c3ccc(Cl)cc3c2C2CCC1C2 [Compound 5b, (R)-2-chloro-5,6,7,8,9,10-hexahydro-7,10-methanocyclohepta[b]indole-6-carboxamide] | 4.8 | 4.8 | 5.0 | 3.8 | – | – | – | – | –
– | – | NC(=O)C1CCCc2c1[nH]c1cc(Nc3ccccc3)c(Cl)cc21 (centres unmarked) [Compound 9, 6-chloro-7-phenylamino-2,3,4,9-tetrahydro-1H-carbazole-1-carboxamide] | 3.9 | 3.9 | 4.0 | 3.5 | – | – | – | – | –
– | – | CN1CC[C@@H](C(N)=O)c2[nH]c3ccc(Cl)cc3c21 [Compound 8a, (R)-8-chloro-1-methyl-2,3,4,5-tetrahydropyrido[3,2-b]indole-4-carboxamide] | 2.4 | 4.8 | 3.2 | 4.0 | – | – | – | – | –
– | significantly increased | C#Cc1cccc(Nc2ncnc3cc(OCCOC)c(OCCOC)cc23)c1 [Erlotinib, erlotinib, reference compound] | – | – | – | – | – | – | – | – | significantly higher than that of normal rats
– | – | CC1CCC(C(N)=O)c2[nH]c3ccc(Cl)cc3c21 (centres unmarked) [Compound 6, 6-chloro-4-methyl-2,3,4,9-tetrahydro-1H-carbazole-1-carboxamide] | 3.2 | 5.1 | 3.5 | 3.4 | – | – | – | – | –
– | – | NC(=O)C1CCCc2c1[nH]c1ccc(Cl)c(F)c21 (centres unmarked) [Compound 3a, 6-chloro-5-fluoro-2,3,4,9-tetrahydro-1H-carbazole-1-carboxamide] | 2.8 | 4.2 | 2.9 | 3.3 | – | – | – | significantly inhibited | –
– | – | NC(=O)C1c2[nH]c3ccc(Cl)cc3c2C2CCC1C2 (centres unmarked) [Compound 5, 2-chloro-5,6,7,8,9,10-hexahydro-7,10-methanocyclohepta[b]indole-6-carboxamide] | 3.0 | 2.9 | 3.1 | 2.4 | – | – | – | – | –
– | – | NC(=O)C1CCCc2c1[nH]c1ccc(F)cc21 (centres unmarked) [Compound 1, 6-fluoro-2,3,4,9-tetrahydro-1H-carbazole-1-carboxamide] | 3.0 | 3.2 | 3.4 | 2.9 | – | – | – | – | –
– | – | NC(=O)C1CCCc2c1[nH]c1cc(F)c(Cl)c(F)c21 (centres unmarked) [Compound 4, 6-chloro-5,7-difluoro-2,3,4,9-tetrahydro-1H-carbazole-1-carboxamide] | 3.2 | 5.1 | 4.2 | 3.6 | – | – | – | – | –
– | – | CN1CCC(C(N)=O)c2[nH]c3ccc(Cl)cc3c21 (centres unmarked) [Compound 8, 8-chloro-1-methyl-2,3,4,5-tetrahydropyrido[3,2-b]indole-4-carboxamide] | 1.7 | 3.0 | 2.1 | 2.5 | – | – | – | – | –
